# Experimental data: ChEMBL document CHEMBL3885881, “DrugMatrix”
# Species on record: Rattus norvegicus
# Assay: DrugMatrix - Regimen: Daily Repeat
# Assay type: toxicity, organism-based, Sprague-Dawley
# Parameters: regimen Daily Repeat, gender Male, age 6-8 weeks
# Conditions: in vivo, po, route oral GAVAGE, […]; for ABSOLUTE BASOPHIL / ABSOLUTE EOSINOPHIL / ABSOLUTE LYMPHOCYTE / ABSOLUTE MONOCYTE / ABSOLUTE SEGMENTED NEUTROPHIL / BASOPHIL / EOSINOPHIL / ERYTHROCYTE COUNT / HEMATOCRIT / HEMOGLOBIN / LEUKOCYTE COUNT / LYMPHOCYTE / MEAN CORPUSCULAR HEMOGLOBIN / MEAN CORPUSCULAR HEMOGLOBIN CONCENTRATION / MEAN CORPUSCULAR VOLUME / MONOCYTE / NEUTROPHIL / NUCLEATED RED BLOOD CELLS / PLATELET COUNT: tissue Blood; for ALANINE AMINOTRANSFERASE / ALBUMIN / ALKALINE PHOSPHATASE / ASPARTATE AMINOTRANSFERASE / BLOOD UREA NITROGEN / CARBON DIOXIDE / CHLORIDE / CHOLESTEROL / CREATINE PHOSPHOKINASE / CREATININE / GLUCOSE / LACTATE DEHYDROGENASE / LIPASE / PHOSPHORUS / POTASSIUM / SODIUM / TOTAL BILIRUBIN / TOTAL PROTEIN / URIC ACID: tissue Plasma
# [1] = 47 mg/kg, 120 h, dose level Low, time 5 day
# [2] = 250 mg/kg, 72 h, dose level High, time 3 day
# [3] = 250 mg/kg, 120 h, dose level High, time 5 day
smiles,measurement,setting,value
CC(=O)Nc1nnc(S(N)(=O)=O)s1 [ACETAZOLAMIDE],ABSOLUTE BASOPHIL,[1],0 CELLS/uL
same,ABSOLUTE EOSINOPHIL,[1],0 CELLS/uL
same,ABSOLUTE LYMPHOCYTE,[1],10200 CELLS/uL
same,ABSOLUTE MONOCYTE,[1],261.33 CELLS/uL
same,ABSOLUTE SEGMENTED NEUTROPHIL,[1],672 CELLS/uL
same,BASOPHIL,[1],0%
same,EOSINOPHIL,[1],0%
same,ERYTHROCYTE COUNT,[1],5.43 x10E6/uL
same,HEMATOCRIT,[1],33.83%
same,HEMOGLOBIN,[1],13.43 G/DL
same,LEUKOCYTE COUNT,[1],11.13 x10E3/uL
same,LYMPHOCYTE,[1],91.67%
same,MEAN CORPUSCULAR HEMOGLOBIN,[1],24.73 pg
same,MEAN CORPUSCULAR HEMOGLOBIN CONCENTRATION,[1],39.7 G/DL
same,MEAN CORPUSCULAR VOLUME,[1],62.3 fL
same,MONOCYTE,[1],2.33%
same,NEUTROPHIL,[1],6%
same,NUCLEATED RED BLOOD CELLS,[1],0.33 /100WBC
same,PLATELET COUNT,[1],1186.33 x10E3/uL
same,ALANINE AMINOTRANSFERASE,[1],60.33 u/L
same,ALBUMIN,[1],4.07 G/DL
same,ALKALINE PHOSPHATASE,[1],448.67 u/L
same,ASPARTATE AMINOTRANSFERASE,[1],74.67 u/L
same,BLOOD UREA NITROGEN,[1],14 mg/dL
same,CARBON DIOXIDE,[1],27.67 mmol/L
same,CHLORIDE,[1],104 MEQ/L
same,CHOLESTEROL,[1],61.33 mg/dL
same,CREATINE PHOSPHOKINASE,[1],271.67 u/L
same,CREATININE,[1],0.14 mg/dL
same,GLUCOSE,[1],155 mg/dL
same,LACTATE DEHYDROGENASE,[1],142 u/L
same,LIPASE,[1],10.33 u/L
same,PHOSPHORUS,[1],9.17 mg/dL
same,POTASSIUM,[1],5.17 MEQ/L
same,SODIUM,[1],145.83 MEQ/L
same,TOTAL BILIRUBIN,[1],0.23 mg/dL
same,TOTAL PROTEIN,[1],6.07 G/DL
same,URIC ACID,[1],0.33 mg/dL
same,ABSOLUTE BASOPHIL,[2],0 CELLS/uL
same,ABSOLUTE EOSINOPHIL,[2],0 CELLS/uL
same,ABSOLUTE LYMPHOCYTE,[2],8200.33 CELLS/uL
same,ABSOLUTE MONOCYTE,[2],117.33 CELLS/uL
same,ABSOLUTE SEGMENTED NEUTROPHIL,[2],382.33 CELLS/uL
same,BASOPHIL,[2],0%
same,EOSINOPHIL,[2],0%
same,ERYTHROCYTE COUNT,[2],5.26 x10E6/uL
same,HEMATOCRIT,[2],32.4%
same,HEMOGLOBIN,[2],12.8 G/DL
same,LEUKOCYTE COUNT,[2],8.7 x10E3/uL
same,LYMPHOCYTE,[2],94.33%
same,MEAN CORPUSCULAR HEMOGLOBIN,[2],24.33 pg
same,MEAN CORPUSCULAR HEMOGLOBIN CONCENTRATION,[2],39.5 G/DL
same,MEAN CORPUSCULAR VOLUME,[2],61.57 fL
same,MONOCYTE,[2],1.33%
same,NEUTROPHIL,[2],4.33%
same,NUCLEATED RED BLOOD CELLS,[2],0 /100WBC
same,PLATELET COUNT,[2],1163 x10E3/uL
same,ALANINE AMINOTRANSFERASE,[2],77 u/L
same,ALBUMIN,[2],3.83 G/DL
same,ALKALINE PHOSPHATASE,[2],352.67 u/L
same,ASPARTATE AMINOTRANSFERASE,[2],83.67 u/L
same,BLOOD UREA NITROGEN,[2],11.67 mg/dL
same,CARBON DIOXIDE,[2],29.67 mmol/L
same,CHLORIDE,[2],101.67 MEQ/L
same,CHOLESTEROL,[2],73.33 mg/dL
same,CREATINE PHOSPHOKINASE,[2],296.33 u/L
same,CREATININE,[2],0.37 mg/dL
same,GLUCOSE,[2],157 mg/dL
same,LACTATE DEHYDROGENASE,[2],154 u/L
same,LIPASE,[2],11.33 u/L
same,PHOSPHORUS,[2],9.67 mg/dL
same,POTASSIUM,[2],4.85 MEQ/L
same,SODIUM,[2],144.27 MEQ/L
same,TOTAL BILIRUBIN,[2],0.2 mg/dL
same,TOTAL PROTEIN,[2],5.67 G/DL
same,URIC ACID,[2],0.33 mg/dL
same,ABSOLUTE BASOPHIL,[3],0 CELLS/uL
same,ABSOLUTE EOSINOPHIL,[3],64 CELLS/uL
same,ABSOLUTE LYMPHOCYTE,[3],8180.67 CELLS/uL
same,ABSOLUTE MONOCYTE,[3],154.33 CELLS/uL
same,ABSOLUTE SEGMENTED NEUTROPHIL,[3],767.67 CELLS/uL
same,BASOPHIL,[3],0%
same,EOSINOPHIL,[3],0.67%
same,ERYTHROCYTE COUNT,[3],5.67 x10E6/uL
same,HEMATOCRIT,[3],35.23%
same,HEMOGLOBIN,[3],13.9 G/DL
same,LEUKOCYTE COUNT,[3],9.17 x10E3/uL
same,LYMPHOCYTE,[3],89.33%
same,MEAN CORPUSCULAR HEMOGLOBIN,[3],24.53 pg
same,MEAN CORPUSCULAR HEMOGLOBIN CONCENTRATION,[3],39.47 G/DL
same,MEAN CORPUSCULAR VOLUME,[3],62.1 fL
same,MONOCYTE,[3],1.67%
same,NEUTROPHIL,[3],8.33%
same,NUCLEATED RED BLOOD CELLS,[3],0 /100WBC
same,PLATELET COUNT,[3],1233.67 x10E3/uL
same,ALANINE AMINOTRANSFERASE,[3],59 u/L
same,ALBUMIN,[3],4.03 G/DL
same,ALKALINE PHOSPHATASE,[3],354.67 u/L
same,ASPARTATE AMINOTRANSFERASE,[3],71 u/L
same,BLOOD UREA NITROGEN,[3],15 mg/dL
same,CARBON DIOXIDE,[3],23.33 mmol/L
same,CHLORIDE,[3],109.33 MEQ/L
same,CHOLESTEROL,[3],66 mg/dL
same,CREATINE PHOSPHOKINASE,[3],397 u/L
same,CREATININE,[3],0.18 mg/dL
same,GLUCOSE,[3],141.67 mg/dL
same,LACTATE DEHYDROGENASE,[3],111.33 u/L
same,LIPASE,[3],10.33 u/L
same,PHOSPHORUS,[3],8.57 mg/dL
same,POTASSIUM,[3],5.2 MEQ/L
same,SODIUM,[3],146 MEQ/L
same,TOTAL BILIRUBIN,[3],0.17 mg/dL
same,TOTAL PROTEIN,[3],6.1 G/DL
same,URIC ACID,[3],0.53 mg/dL
